# Assay results published in ChEMBL document CHEMBL1201862, “PubChem BioAssay data set” (2004).
# Activity calls are given as the source filed them.
# How the values were obtained:
# [1] = target: Luciferin 4-monooxygenase (Photinus pyralis, UniProt P08659); assay: firefly luciferase enzyme inhibitors, dose response, biochemical, luminescence (AID 1891)
# [2] = Luminescence Cell-Based Dose Confirmation HTS to Identify Inhibitors of Platelet Dense Granule Release. [Related pubchem assays: 1663 (Primary HTS), 1678 (Summary of Project)]; type: functional
# [3] = target: Cytochrome P450 3A4 (Homo sapiens, UniProt P08684);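 note: CYP3A4 tested as one member of a cytochrome P450 panel screen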
# Sequence of Cytochrome P450 3A4 (P08684 whole entry): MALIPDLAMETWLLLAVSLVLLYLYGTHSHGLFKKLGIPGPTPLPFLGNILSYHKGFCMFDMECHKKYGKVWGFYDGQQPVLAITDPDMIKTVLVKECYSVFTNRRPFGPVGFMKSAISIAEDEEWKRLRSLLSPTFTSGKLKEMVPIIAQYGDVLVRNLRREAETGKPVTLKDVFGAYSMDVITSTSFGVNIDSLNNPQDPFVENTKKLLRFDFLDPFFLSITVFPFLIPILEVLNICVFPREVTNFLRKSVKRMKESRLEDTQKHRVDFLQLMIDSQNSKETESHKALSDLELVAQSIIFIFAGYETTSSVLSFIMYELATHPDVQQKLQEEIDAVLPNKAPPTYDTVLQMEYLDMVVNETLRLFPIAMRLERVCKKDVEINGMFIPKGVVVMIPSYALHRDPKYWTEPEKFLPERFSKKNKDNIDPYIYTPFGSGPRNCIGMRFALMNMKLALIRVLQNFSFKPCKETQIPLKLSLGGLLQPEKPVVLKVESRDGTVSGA
# [4] = system: Streptococcus sp. 'group A'; assay: growth inhibition of control SK(-) GAS strain, dose response, counter-screen for streptokinase expression inhibitor project, luminescence, kanamycin, BacTiterGlo, confirmation (AID 1900); type: functional, organism-based
# [5] = target: T1, Streptokinase A (Streptococcus pyogenes serotype M1, UniProt P10520); assay: S. pyogenes streptokinase expression inhibitors, potency, dose response, plasminogen activation absorbance, OD405 (AID 1914); type: functional, Streptococcus pyogenes M1 GAS;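 note: secreted streptokinase activity via plasminogen activation per viability signal from cell pellet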
# T1 sequence (P10520 whole entry): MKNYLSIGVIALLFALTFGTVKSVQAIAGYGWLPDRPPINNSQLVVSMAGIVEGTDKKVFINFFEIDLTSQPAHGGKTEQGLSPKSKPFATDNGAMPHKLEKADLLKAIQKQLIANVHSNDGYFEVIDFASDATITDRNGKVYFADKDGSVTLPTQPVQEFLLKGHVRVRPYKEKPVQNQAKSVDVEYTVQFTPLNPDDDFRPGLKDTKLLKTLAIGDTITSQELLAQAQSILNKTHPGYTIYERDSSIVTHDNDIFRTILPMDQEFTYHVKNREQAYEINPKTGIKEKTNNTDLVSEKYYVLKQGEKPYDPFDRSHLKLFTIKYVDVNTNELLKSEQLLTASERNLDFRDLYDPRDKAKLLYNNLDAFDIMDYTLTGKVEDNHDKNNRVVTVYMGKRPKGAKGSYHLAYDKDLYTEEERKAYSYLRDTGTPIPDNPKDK
# [6] = system: Streptococcus; assay: Group A Streptococcus viability loss, dose response, counter-screen for streptokinase expression inhibitor project, luminescence, BacTiterGlo (AID 1915); type: functional, organism-based;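 note: potency for reduction of bacterial viability or growth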
# [7] = target: Cytochrome P450 2C19 (Homo sapiens, UniProt P33261); assay: Cytochrome panel assay with activity outcomes. Panel member name: p450-cyp2c19 Compounds with AC50 equal or less than 10 uM are considered active; type: functional; details: read-out: AC50
# Sequence of Cytochrome P450 2C19 (P33261 whole entry): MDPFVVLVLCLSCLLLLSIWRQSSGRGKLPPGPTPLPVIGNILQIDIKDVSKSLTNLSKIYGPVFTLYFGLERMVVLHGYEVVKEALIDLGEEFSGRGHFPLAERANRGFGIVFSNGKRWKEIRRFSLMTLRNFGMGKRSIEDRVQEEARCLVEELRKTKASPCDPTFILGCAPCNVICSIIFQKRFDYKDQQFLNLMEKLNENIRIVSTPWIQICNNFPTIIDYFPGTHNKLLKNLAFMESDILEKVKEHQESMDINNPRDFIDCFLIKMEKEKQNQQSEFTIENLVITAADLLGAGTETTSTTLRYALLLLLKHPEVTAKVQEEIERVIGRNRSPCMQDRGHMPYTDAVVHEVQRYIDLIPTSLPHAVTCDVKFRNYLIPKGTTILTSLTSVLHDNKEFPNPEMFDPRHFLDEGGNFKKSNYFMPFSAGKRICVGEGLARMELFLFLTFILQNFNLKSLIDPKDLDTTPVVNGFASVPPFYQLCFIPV
# [8] = target: Cytochrome P450 2C9 (Homo sapiens, UniProt P11712)
# Sequence of Cytochrome P450 2C9 (P11712 whole entry): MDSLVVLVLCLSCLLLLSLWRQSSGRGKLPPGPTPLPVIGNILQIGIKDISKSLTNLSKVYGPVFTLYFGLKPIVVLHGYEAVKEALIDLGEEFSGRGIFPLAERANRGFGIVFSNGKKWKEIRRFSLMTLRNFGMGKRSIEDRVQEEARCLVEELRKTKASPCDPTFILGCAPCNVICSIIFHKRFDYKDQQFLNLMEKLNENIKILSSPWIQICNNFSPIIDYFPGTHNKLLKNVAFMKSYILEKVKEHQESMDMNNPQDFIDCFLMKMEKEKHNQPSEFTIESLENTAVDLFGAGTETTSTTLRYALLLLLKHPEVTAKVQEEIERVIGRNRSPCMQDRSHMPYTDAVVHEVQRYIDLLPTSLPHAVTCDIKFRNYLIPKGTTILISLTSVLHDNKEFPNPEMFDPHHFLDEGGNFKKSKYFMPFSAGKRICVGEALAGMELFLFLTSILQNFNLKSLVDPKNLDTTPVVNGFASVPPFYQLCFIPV
# [9] = Luminescence Cell-Based Dose Retest to Confirm Inhibitors of Cancer Stem Cells. [Related pubchem assays (depositor defined):AID2717, AID2721]; type: functional; details: Homo sapiens
# [10] = target: T2, Heat shock factor protein 1 (Mus musculus, UniProt P38532); assay: inhibition of MG132-induced HSE-luciferase signal, confirmation, cell-based, NIH3T3, luminescence, dose retest (AID 2382); type: functional;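 note: NIH3T3 fibroblasts with HSF1-driven luciferase reporter stressed by proteasome inhibitor MG132; luminescence from HSF1-driven luciferase expression after 8 hours of MG132 stress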
# T2 sequence (P38532 whole entry): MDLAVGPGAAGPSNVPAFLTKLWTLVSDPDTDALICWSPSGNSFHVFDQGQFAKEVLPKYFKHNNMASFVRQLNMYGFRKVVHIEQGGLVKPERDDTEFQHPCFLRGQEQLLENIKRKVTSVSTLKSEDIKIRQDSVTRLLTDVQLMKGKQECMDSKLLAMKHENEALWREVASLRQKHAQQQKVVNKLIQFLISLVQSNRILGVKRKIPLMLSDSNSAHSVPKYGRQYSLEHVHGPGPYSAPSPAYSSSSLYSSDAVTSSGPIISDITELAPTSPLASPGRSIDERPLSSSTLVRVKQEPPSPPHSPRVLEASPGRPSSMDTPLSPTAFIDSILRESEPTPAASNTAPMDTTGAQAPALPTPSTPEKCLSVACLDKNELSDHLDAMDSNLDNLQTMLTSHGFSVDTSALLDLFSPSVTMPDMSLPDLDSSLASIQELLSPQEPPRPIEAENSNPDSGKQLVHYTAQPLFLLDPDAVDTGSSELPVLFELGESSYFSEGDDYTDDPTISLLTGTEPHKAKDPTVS
# [11] = target: T3, Rac GTPase-activating protein 1 (Homo sapiens, UniProt Q9H0H5); assay: MgcRacGAP GTPase-activating activity inhibitors, confirmation, biochemical, ADP Hunter fluorescence, primary and confirmatory (AID 624330); type: functional
# T3 sequence (Q9H0H5 whole entry): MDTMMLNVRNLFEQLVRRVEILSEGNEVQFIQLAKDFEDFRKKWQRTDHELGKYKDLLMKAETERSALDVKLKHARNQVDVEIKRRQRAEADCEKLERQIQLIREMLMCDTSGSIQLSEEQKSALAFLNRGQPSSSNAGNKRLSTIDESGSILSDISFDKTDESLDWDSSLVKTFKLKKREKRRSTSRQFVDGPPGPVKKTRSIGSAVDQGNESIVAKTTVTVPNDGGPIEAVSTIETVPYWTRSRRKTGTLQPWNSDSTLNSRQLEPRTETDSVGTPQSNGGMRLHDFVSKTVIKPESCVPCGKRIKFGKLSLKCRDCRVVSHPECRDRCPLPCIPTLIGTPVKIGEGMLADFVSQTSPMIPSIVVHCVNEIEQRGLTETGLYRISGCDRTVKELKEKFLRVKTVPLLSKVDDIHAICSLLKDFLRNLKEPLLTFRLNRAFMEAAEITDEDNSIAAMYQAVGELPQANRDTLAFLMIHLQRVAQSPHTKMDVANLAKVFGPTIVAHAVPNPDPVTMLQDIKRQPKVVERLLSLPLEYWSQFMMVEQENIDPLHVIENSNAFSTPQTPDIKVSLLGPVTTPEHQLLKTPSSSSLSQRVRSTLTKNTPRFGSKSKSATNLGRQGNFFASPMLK
# [12] = system: INS1; assay: beta cell apoptosis inhibitors, cytokine rescue, dose response, luminescence, retest (AID 449756); type: functional, cell-based; details: Rattus norvegicus;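 note: cell death triggered by IL-1 beta plus TNF-alpha plus IFN-gamma mixture; protective hits raise ATP signal compared with cytokine alone wells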
# [13] = inhibitors of intracellular T. cruzi replication, confirmation, NIH3T3 host cells, beta-gal luminescence (AID 2044); type: functional, cell-based;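 note: intracellular parasites grown in NIH/3T3 mouse fibroblasts as host cells; luminescent beta-galactosidase reporter signal from transgenic T. cruzi replicating inside host cells; inhibitors lower the luminescence signal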
# [14] = cytotoxicity toward NIH3T3 fibroblasts, dose response, counter-screen, cell-based, ATP luminescence, mouse fibroblasts (AID 2010); type: functional;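 note: cells exposed to compound for about 90 hours before reading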
# Sequence of Luciferin 4-monooxygenase (P08659 whole entry): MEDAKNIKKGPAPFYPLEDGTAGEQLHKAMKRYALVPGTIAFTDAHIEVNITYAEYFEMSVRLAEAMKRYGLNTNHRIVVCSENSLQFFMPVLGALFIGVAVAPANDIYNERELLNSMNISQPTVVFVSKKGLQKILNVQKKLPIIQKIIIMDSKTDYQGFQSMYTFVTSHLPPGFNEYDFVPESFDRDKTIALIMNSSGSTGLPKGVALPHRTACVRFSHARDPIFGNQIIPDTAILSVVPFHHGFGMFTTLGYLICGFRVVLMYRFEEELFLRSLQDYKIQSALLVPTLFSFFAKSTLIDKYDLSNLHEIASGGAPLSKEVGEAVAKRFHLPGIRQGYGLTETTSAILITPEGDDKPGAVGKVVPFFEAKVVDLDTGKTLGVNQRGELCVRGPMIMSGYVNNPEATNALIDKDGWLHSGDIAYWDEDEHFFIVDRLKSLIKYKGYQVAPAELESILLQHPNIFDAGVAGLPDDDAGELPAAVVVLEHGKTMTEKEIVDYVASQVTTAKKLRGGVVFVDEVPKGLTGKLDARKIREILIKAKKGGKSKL
smiles,measurement,setting,value
N=C(NOC(=O)c1ccc(Cl)cc1)c1[nH]ncc1Br,EC50,[1],0.882 µM (active)
same,EC50,[2],4.36 µM (active)
CS(=O)(=O)N1CCC2(CCCN(C(=O)Nc3cccc(F)c3)C2)CC1,AC50,[3],20 µM (inconclusive)
Cc1cc(C)c(-c2noc(C(=O)OC(C)(C)C)c2C(=O)OC(C)(C)C)c(C)c1,EC50,[4],10.4 µM (active)
same,EC50,[5],11.5 µM (active)
same,EC50,[6],> 150 µM (not active)
same,AC50,[7],11.2 µM (inconclusive)
same,AC50,[8],12.6 µM (inconclusive)
CCOC(=O)Nc1ccc2nc(Sc3ccc(Cl)cc3)sc2c1,AC50,[9],1.53 µM (active)
CC1CCN(CC(=O)Nc2ccc(S(=O)(=O)NC3CC3)cc2)CC1,EC50,[10],> 195 µM (not active)
same,IC50,[11],179 µM (active)
CN(C)CCOC(=O)CCc1ccccc1,EC50,[1],> 112 µM (not active)
same,EC50,[2],> 112 µM (not active)
O=[N+]([O-])c1ccc(N2CCC(=NOCc3ccc(Cl)cc3)CC2)cc1,AC50,[7],4.47 µM (inconclusive)
same,AC50,[3],35.5 µM (inconclusive)
same,AC50,[8],14.1 µM (inconclusive)
C/C(=N\Nc1nc(C)cc(-c2ccccc2)n1)c1cccc(N)c1,AC50,[12],2.76 µM (active)
CC1(C)C(=O)N=C2C1=C(O)C(=O)c1ccccc12,AC50,[7],31.6 µM (inconclusive)
same,AC50,[3],31.6 µM (inconclusive)
same,AC50,[8],25.1 µM (inconclusive)
OC(CNCC1COc2ccccc2O1)COCc1cccs1 (centres undefined),IC50,[11],76.9 µM (active)
CC(=O)Nc1ccc(Nc2ccccc2)cc1,IC50,[11],75.6 µM (active)
CC1(C)CC(=O)C(C(C#Cc2ccccc2)C2=C(O)CC(C)(C)CC2=O)=C(O)C1,AC50,[3],31.6 µM (inconclusive)
Cc1ccccc1CNc1ccc(C(CC(N)=O)NC(=O)c2ccccc2)cc1[N+](=O)[O-] (centres undefined),AC50,[9],3.49 µM (active)
Cc1ccsc1/C=N/Nc1nc2ccccc2[nH]1,IC50,[11],71.6 µM (active)
CC(C)C(C(=O)NCC1CCCO1)N(Cc1ccco1)C(=O)CNS(=O)(=O)c1ccc(F)cc1 (centres undefined),AC50,[7],11.2 µM (inconclusive)
same,AC50,[8],39.8 µM (inconclusive)
Cc1cc(NC(=S)NC(=O)CC(C)C)ccc1Br,AC50,[3],20 µM (inconclusive)
same,AC50,[8],0.0447 µM (inconclusive)
Cc1cc(C(F)(F)F)nn1CC(=O)Nc1cccnc1,AC50,[7],22.4 µM (inconclusive)
same,AC50,[3],25.1 µM (inconclusive)
same,AC50,[8],39.8 µM (inconclusive)
CC(OC(=O)CCNC1=NS(=O)(=O)c2ccccc21)C(=O)Nc1ccc(N(C)C)cc1 (centres undefined),IC50,[11],54.7 µM (active)
Cc1cccc(N2C(S)=C(C#N)C(=O)NC2c2cccs2)c1 (centres undefined),IC50,[11],110 µM (active)
O=C(CC1(O)C(=O)N(Cc2ccccc2)c2ccccc21)c1ccncc1 (centres undefined),EC50,[1],> 112 µM (not active)
same,EC50,[2],> 112 µM (not active)
COCCn1c(=O)c(-c2cn(C)c3ccccc23)nc2cnc(OCc3ccccc3)nc21,AC50,[3],7.94 µM (inconclusive)
O=C(N/N=C/c1ccc(OC2CSC2)cc1)c1ccccc1,AC50,[9],2.49 µM (active)
O=[N+]([O-])C(=C\Nc1ccccc1O)/C=N/c1ccccc1O,IC50,[11],58.9 µM (active)
CCCCC[C@H](O)/C=C/[C@H]1[C@H](O)CC(=O)[C@@H]1CCCCCCC(=O)O [ALPROSTADIL],EC50,[1],> 112 µM (not active)
same,EC50,[2],< 0.088 µM (active)
CN(C(S)=Nc1ccc(SC(F)F)cc1)C(c1ccccc1)c1ccccc1,AC50,[9],4.57 µM (active)
C=C(Br)Cn1c(CCCC)nc2ccccc21,AC50,[9],0.514 µM (active)
O=C(Cc1ccc(Cl)c(Cl)c1)Nc1ccc(SC(F)F)cc1,AC50,[9],4.04 µM (active)
O=C(O)/C=C/c1cccc(NC(=O)c2ccccc2)c1,EC50,[1],4.49 µM (active)
same,EC50,[2],17.4 µM (active)
COCCNC(=O)COc1ccc(Nc2ccccc2)cc1,IC50,[11],47.6 µM (active)
Cc1nn(CC(=O)Nc2cccnc2)c(C)c1[N+](=O)[O-],EC50,[1],> 112 µM (not active)
same,EC50,[2],7.26 µM (active)
CCCCn1c(N)c(N(Cc2ccccc2OC)C(=O)C(C)Oc2ccc(Cl)cc2)c(=O)[nH]c1=O (centres undefined),EC50,[1],> 112 µM (not active)
same,EC50,[2],> 112 µM (not active)
O=C(COc1ccc2ccccc2c1)NNC(=O)Cc1cccc2ccccc12,AC50,[7],0.398 µM (inconclusive)
same,AC50,[3],14.1 µM (inconclusive)
Cc1ccccc1-c1ccc(CN2CCN(C)C(CCO)C2)cc1 (centres undefined),EC50,[13],0.828 µM (active)
same,EC50,[14],4.69 µM (active)
same,AC50,[9],2.9 µM (active)
COc1ccc(CN2CCCC(C(=O)c3cccc(OC(C)C)c3)C2)cc1Cn1cccn1 (centres undefined),EC50,[1],> 112 µM (not active)
same,EC50,[2],> 112 µM (not active)
Cc1ccc(-c2nn(-c3ccccc3)cc2/C=C/C(=O)Nc2cccc(S(N)(=O)=O)c2)cc1,AC50,[12],3.29 µM (active)
